Reference: patent US11649246B2, “Salts of 4-amino-N-(l-((3-chloro-2-fluorophenyl)amino)-6-methylisoquinolin-5-yl)thieno[3,2-D]pyrimidine-7-carboxamide, and crystalline forms thereof” (Hanmi Pharm. Co., Ltd., priority 2017, dated 2023)
In brackets after ≈: the same amount, converted by molar mass. Read-outs that look alike come from different tables or passages of the source.

What was measured:
Assay type in all cases: physicochemical
[1] = Stress stability test at 60° C.
Protocol: In order to compare physicochemical stability among the crystalline form prepared in Example 3 (crystalline Formula (I) bis-hydrochloride Form I) and 16 (Formula (I) crystalline free base), and the amorphous form prepared in Comparative Example 1, a stress stability test was conducted by storing samples at 60° C., for different periods of time up to 4 weeks.

[2] = Solubility of bis-hydrochloride Form I by HPLC test and observation test
Protocol: Solubility was measured by HPLC according to KP, USP and EP general chapters. […] The results of solubility were same between HPLC test and observation test.

[3] = Dissociation constant (pKa), GLpKa method, Sirius T3; details: for pKa: MDM co-solvent solution (ISA Water/MeOH/ACN/p-Dioxane), 43% MDM solution
Protocol: Based on these pKa values, Formula (I) is believed to be weakly basic compound.
The dissociation, pKa, was measured with a T3 (Sirius Analytical Instrument Ltd., UK). About 1 mg of Formula (I) bis-hydrochloride was transferred to a GLpKa beaker, dissolved with 43% to 53% MDM solution (ISA Water/MeOH/ACN/p-Dioxane=40/20/20/20, Sirius), adjusted to pH 1.8 with 0.5 N HCl, and titrated up to pH 12.2 with 0.5 N KOH. The pKa as an aqueous solution was calculated by extrapolation.

[4] = Hygroscopicity by dynamic vapor sorption (DVS); details: Form I trihydrate
Protocol: Dynamic vapor sorption (DVS) analysis was performed in a DVS advantage (Surface measurement system, United Kingdom) analyzer at 25° C. with a relative humidity of 0% to 90%. A sample in an amount of 10 mg was placed into a wire-mesh vapor sorption balance pan and then attached to a DVS advantage dynamic vapor sorption balance via surface measurement systems. […] Upon completion of the sorption cycle, the sample was dried using the same process while maintaining a relative humidity of 0%. The changes in the sample weight during the adsorption/desorption cycle (repeated 3 times) were recorded and the hygroscopicity of the sample was measured. DVS isotherm diagrams are presented in FIGS. 1, 3, 6, 10, 13, 16 and 19 where Target PP (%) refers to relative humidity, “SORP” refers to adsorption and “DESORP” refers to desorption.
Hygroscopicity was measured by DVS where the DVS curve for Formula (I) bis-hydrochloride was recorded in a DVS Advantage I analyzer (SMS, United Kingdom). The DVS was operated over 3 cycles for measurement of the surface adsorption effects of water, from 0% RH to 90% RH at 25°.

[5] = Partition / distribution coefficient octanol-water (Sirius T3); details: octanol/water
Protocol: The partition coefficient, Log P, was measured with a T3 (Sirius Analytical Instrument Ltd., UK). About 1 mg of Formula (I) bis-hydrochloride was added to a 15 mL GLpKa beaker, dissolved with octanol/150 mM KCl, adjusted to pH 1.8 with 0.5 N HCl, and titrated up to pH 12.2 with 0.5 N KOH. The partition coefficient of the octanol-water system was determined by correcting the difference between titration curves of the blank from the titration curve, by inserting the value of the dissociation constant measured previously.

[6] = as an aqueous solution, calculated by extrapolation

Purity(%) (A % by HPLC) ([1]; 2 weeks): 99.8% | Total impurities(%) (A % by HPLC) ([1]; 2 weeks): 0.16% | Purity(%) (A % by HPLC) ([1]; 4 weeks): 99.8% | Total impurities(%) (A % by HPLC) ([1]; 4 weeks): 0.23% | Purity(%) (A % by HPLC) ([1]; 1 day): 99.8% | Total impurities(%) (A % by HPLC) ([1]; 1 day): 0.17% | Purity(%) (A % by HPLC) ([1]; 3 days): 99.8% | Total impurities(%) (A % by HPLC) ([1]; 3 days): 0.15% | Purity(%) (A % by HPLC) ([1]; 7 days): 99.8% | Total impurities(%) (A % by HPLC) ([1]; 7 days): 0.19% | Purity(%) (A % by HPLC) ([1]; Initial): 99.8% | Total impurities(%) (A % by HPLC) ([1]; Initial): 0.17% | solubility ([2]; ACN): 113431 mL/g | Solubility Observation ([2]; ACN, listed as Formula (I) bis-hydrochloride Form I): Practically insoluble | solubility ([2]; DMSO): 8 mL/g | Solubility Observation ([2]; DMSO, listed as Formula (I) bis-hydrochloride Form I): Freely soluble | solubility ([2]; Dichloromethane): 366289 mL/g | Solubility Observation ([2]; Dichloromethane, listed as Formula (I) bis-hydrochloride Form I): Practically insoluble | solubility ([2]; Ethanol): 1316 mL/g | Solubility Observation ([2]; Ethanol, listed as Formula (I) bis-hydrochloride Form I): Very slightly soluble | solubility ([2]; Ethyl acetate): 356535 mL/g | Solubility Observation ([2]; Ethyl acetate, listed as Formula (I) bis-hydrochloride Form I): Practically insoluble | solubility ([2]; Ethyl ether): 522061 mL/g | Solubility Observation ([2]; Ethyl ether, listed as Formula (I) bis-hydrochloride Form I): Practically insoluble | solubility ([2]; Methanol): 58 mL/g | Solubility Observation ([2]; Methanol, listed as Formula (I) bis-hydrochloride Form I): Sparingly soluble | solubility ([2]; Water): 654940 mL/g | Solubility Observation ([2]; Water, listed as Formula (I) bis-hydrochloride Form I): Practically insoluble | solubility ([2]; aqueous buffer, thermodynamic from solid, pH 3.0 buffer, read-out: Solubility): 20 µg/mL (≈ 41.8 µM) | solubility ([2]; aqueous buffer, thermodynamic from solid, pH 4.0 buffer, read-out: Solubility): 3 µg/mL (≈ 6.26 µM) | solubility ([2]; aqueous buffer, thermodynamic from solid, pH 5.0 buffer, read-out: Solubility): 0.09 µg/mL (≈ 0.188 µM) | solubility ([2]; aqueous buffer, thermodynamic from solid, pH 6.0 buffer, read-out: Solubility): 0.1 µg/mL (≈ 0.209 µM) | solubility ([2]; aqueous buffer, thermodynamic from solid, pH 6.8 buffer, read-out: Solubility): 0.09 µg/mL (≈ 0.188 µM) | solubility ([2]; aqueous buffer, thermodynamic from solid, pH 7.0 buffer, read-out: Solubility): 0.06 µg/mL (≈ 0.125 µM) | solubility ([2]; aqueous buffer, thermodynamic from solid, pH 8.0 buffer, read-out: Solubility): 0.05 µg/mL (≈ 0.104 µM) | solubility ([2]; n-Hexane): 22316479 mL/g | Solubility Observation ([2]; n-Hexane, listed as Formula (I) bis-hydrochloride Form I): Practically insoluble | solubility ([2]; organic solvent or mixture, thermodynamic from solid, ACN, read-out: Solubility): 8 µg/mL (≈ 16.7 µM) | solubility ([2]; organic solvent or mixture, thermodynamic from solid, DMSO, read-out: Solubility): 131000 µg/mL (≈ 273000 µM) | solubility ([2]; organic solvent or mixture, thermodynamic from solid, Dichloromethane, read-out: Solubility): 2.7 µg/mL (≈ 5.64 µM) | solubility ([2]; organic solvent or mixture, thermodynamic from solid, Ethanol, read-out: Solubility): 800 µg/mL (≈ 1670 µM) | solubility ([2]; organic solvent or mixture, thermodynamic from solid, Ethyl acetate, read-out: Solubility): 2.8 µg/mL (≈ 5.85 µM) | solubility ([2]; organic solvent or mixture, thermodynamic from solid, Ethyl ether, read-out: Solubility): 1.9 µg/mL (≈ 3.97 µM) | solubility ([2]; organic solvent or mixture, thermodynamic from solid, Methanol, read-out: Solubility): 17400 µg/mL (≈ 36300 µM) | solubility ([2]; organic solvent or mixture, thermodynamic from solid, n-Hexane, read-out: Solubility): 0.04 µg/mL (≈ 0.0835 µM) | solubility ([2]; pH 1.2 buffer): 3811 mL/g | Solubility Observation ([2]; pH 1.2 buffer, listed as Formula (I) bis-hydrochloride Form I): Very slightly soluble | solubility ([2]; pH 2.0 buffer): 1688 mL/g | Solubility Observation ([2]; pH 2.0 buffer, listed as Formula (I) bis-hydrochloride Form I): Very slightly soluble | Solubility Observation ([2]; pH 3.0 buffer): Practically insoluble | solubility ([2]; pH 3.0 buffer): 42855 mL/g | Solubility Observation ([2]; pH 4.0 buffer): Practically insoluble | solubility ([2]; pH 4.0 buffer): 331069 mL/g | Solubility Observation ([2]; pH 5.0 buffer): Practically insoluble | solubility ([2]; pH 5.0 buffer): 10759731 mL/g | Solubility Observation ([2]; pH 6.0 buffer): Practically insoluble | solubility ([2]; pH 6.0 buffer): 9770999 mL/g | Solubility Observation ([2]; pH 6.8 buffer): Practically insoluble | solubility ([2]; pH 6.8 buffer): 11528283 mL/g | Solubility Observation ([2]; pH 7.0 buffer): Practically insoluble | solubility ([2]; pH 7.0 buffer): 16139597 mL/g | Solubility Observation ([2]; pH 8.0 buffer): Practically insoluble | solubility ([2]; pH 8.0 buffer): 21884199 mL/g | solubility ([2]; simulated gastric fluid, thermodynamic from solid, pH 1.2 buffer, read-out: Solubility): 300 µg/mL (≈ 626 µM) | solubility ([2]; simulated gastric fluid, thermodynamic from solid, pH 2.0 buffer, read-out: Solubility): 600 µg/mL (≈ 1250 µM) | solubility ([2]; thermodynamic from solid, Water, read-out: Solubility): 1.5 µg/mL (≈ 3.13 µM) | pKa ([3]; column 1, read-out: pKa (first value)): 3.85 | pKa ([3]; column 1, read-out: pKa (second value)): 4.71 | pKa ([3]; column 1, read-out: pKa (third value)): 10.4 | pKa ([3]; column 2, read-out: pKa (first value)): 3.88 | pKa ([3]; column 2, read-out: pKa (second value)): 4.7 | pKa ([3]; column 2, read-out: pKa (third value)): 10.4 | pKa ([3]; column 3, read-out: pKa (first value)): 3.84 | pKa ([3]; column 3, read-out: pKa (second value)): 4.69 | pKa ([3]; column 3, read-out: pKa (third value)): 10.4 | pKa1 [3, 6]: 3.86 | pKa2 [3, 6]: 4.73 | pKa3 ([3]; as an aqueous solution, calculated by extrapolation, listed as Formula (I) bis-hydrochloride Form I): 10.3 | water content (DVS) ([4]; at 20% relative humidity (sorption and desorption)): about 9% | water content (DVS) ([4]; at 90% relative humidity (sorption and desorption)): about 14% | logD ([5]; pH 1): 0.02 | logD ([5]; pH 1.2): 0.05 | logD ([5]; pH 2): 0.77 | logD ([5]; pH 3): 2.64 | logD ([5]; pH 4): 4.26 | logD ([5]; pH 5): 5.06 | logD ([5]; pH 6): 5.22 | logD ([5]; pH 6.5): 5.24 | logD ([5]; pH 7): 5.24 | logD ([5]; pH 8): 5.24 | logD ([5]; pH 9): 5.23 | logD ([5]; pH 10): 5.11 | logD ([5]; pH 11): 4.71 | logD ([5]; pH 12): 4.4
Compound: Cc1ccc2c(Nc3cccc(Cl)c3F)nccc2c1NC(=O)c1csc2c(N)ncnc12 [Example 3, 4-amino-N-(1-((3-chloro-2-fluorophenyl)amino)-6-methylisoquinolin-5-yl)thieno[3,2-d]pyrimidine-7-carboxamide]
physicochemical stability (summary in words) ([1]; up to 4 weeks, listed as crystalline form (Form I) of the dihydrochloride): remarkably superior stability over the amorphous form
